According to the NIST ThermoML archive (doi:10.1021/acs.jced.8b00201):
± gives the expanded uncertainty stated by the source.

Experiment: xn = mol fraction of the nth substance listed
Details: 100 kPa, Liquid; for viscosity: Concentric cylinders viscometry; for mass density: Vibrating tube method

O=C1CCCCC1 [cyclohexanone] + CCCCCO
Details	mass density [kg/m3]	viscosity [mPa·s]
293.15 K, x1 = 0.0803	825.1 ± 20	3.57 ± 0.18
293.15 K, x1 = 0.1609	835.7 ± 20	3.16 ± 0.16
293.15 K, x1 = 0.2403	846.2 ± 20	2.8 ± 0.2
293.15 K, x1 = 0.3473	860.4 ± 20	2.41 ± 0.12
293.15 K, x1 = 0.4404	872.7 ± 20	2.17 ± 0.11
293.15 K, x1 = 0.5619	889 ± 20	1.96 ± 0.1
293.15 K, x1 = 0.6501	900.9 ± 20	1.88 ± 0.09
293.15 K, x1 = 0.747	914 ± 20	1.87 ± 0.09
293.15 K, x1 = 0.8494	928 ± 20	1.98 ± 0.1
293.15 K, x1 = 0.9404	940.5 ± 20	2.12 ± 0.11
293.15 K, x1 = 1	948.8 ± 20	2.3 ± 0.12
298.15 K, x1 = 0.0803	821.1 ± 20	3.1 ± 0.16
298.15 K, x1 = 0.1609	831.6 ± 20	2.77 ± 0.14
298.15 K, x1 = 0.2403	841.9 ± 20	2.49 ± 0.13
298.15 K, x1 = 0.3473	855.8 ± 20	2.15 ± 0.11
298.15 K, x1 = 0.4404	868 ± 20	1.96 ± 0.1
298.15 K, x1 = 0.5619	884.1 ± 20	1.8 ± 0.09
298.15 K, x1 = 0.6501	895.8 ± 20	1.74 ± 0.09
298.15 K, x1 = 0.747	908.8 ± 20	1.74 ± 0.09
298.15 K, x1 = 0.8494	922.6 ± 20	1.83 ± 0.09
298.15 K, x1 = 0.9404	934.9 ± 20	1.97 ± 0.1
298.15 K, x1 = 1	943.1 ± 20	2.09 ± 0.11
303.15 K, x1 = 0.0803	817.3 ± 20	2.71 ± 0.14
303.15 K, x1 = 0.1609	827.6 ± 20	2.44 ± 0.12
303.15 K, x1 = 0.2403	837.8 ± 20	2.2 ± 0.11
303.15 K, x1 = 0.3473	851.6 ± 20	1.94 ± 0.1
303.15 K, x1 = 0.4404	863.7 ± 20	1.77 ± 0.09
303.15 K, x1 = 0.5619	879.6 ± 20	1.63 ± 0.08
303.15 K, x1 = 0.6501	891.2 ± 20	1.58 ± 0.08
303.15 K, x1 = 0.747	904.1 ± 20	1.58 ± 0.08
303.15 K, x1 = 0.8494	917.8 ± 20	1.67 ± 0.08
303.15 K, x1 = 0.9404	930.1 ± 20	1.78 ± 0.09
303.15 K, x1 = 1	938.2 ± 20	1.91 ± 0.1
308.15 K, x1 = 0.0803	813.4 ± 20	2.38 ± 0.12
308.15 K, x1 = 0.1609	823.6 ± 20	2.14 ± 0.11
308.15 K, x1 = 0.2403	833.7 ± 20	1.95 ± 0.1
308.15 K, x1 = 0.3473	847.4 ± 20	1.73 ± 0.09
308.15 K, x1 = 0.4404	859.5 ± 20	1.6 ± 0.1
308.15 K, x1 = 0.5619	875.3 ± 20	1.49 ± 0.08
308.15 K, x1 = 0.6501	886.8 ± 20	1.46 ± 0.07
308.15 K, x1 = 0.747	899.6 ± 20	1.46 ± 0.07
308.15 K, x1 = 0.8494	913.2 ± 20	1.54 ± 0.08
308.15 K, x1 = 0.9404	925.5 ± 20	1.64 ± 0.08
308.15 K, x1 = 1	933.5 ± 20	1.75 ± 0.09
313.15 K, x1 = 0.0803	809.6 ± 20	2.08 ± 0.1
313.15 K, x1 = 0.1609	819.7 ± 20	1.9 ± 0.1
313.15 K, x1 = 0.2403	829.8 ± 20	1.73 ± 0.09
313.15 K, x1 = 0.3473	843.4 ± 20	1.54 ± 0.08
313.15 K, x1 = 0.4404	855.3 ± 20	1.43 ± 0.07
313.15 K, x1 = 0.5619	871 ± 20	1.34 ± 0.07
313.15 K, x1 = 0.6501	882.4 ± 20	1.32 ± 0.07
313.15 K, x1 = 0.747	895.1 ± 20	1.33 ± 0.07
313.15 K, x1 = 0.8494	908.7 ± 20	1.4 ± 0.07
313.15 K, x1 = 0.9404	920.8 ± 20	1.5 ± 0.08
313.15 K, x1 = 1	928.8 ± 20	1.6 ± 0.08
318.15 K, x1 = 0.0803	805.7 ± 20	1.84 ± 0.09
318.15 K, x1 = 0.1609	815.7 ± 20	1.68 ± 0.08
318.15 K, x1 = 0.2403	825.6 ± 20	1.53 ± 0.08
318.15 K, x1 = 0.3473	839.1 ± 20	1.38 ± 0.07
318.15 K, x1 = 0.4404	851 ± 20	1.29 ± 0.07
318.15 K, x1 = 0.5619	866.6 ± 20	1.21 ± 0.06
318.15 K, x1 = 0.6501	878.1 ± 20	1.19 ± 0.06
318.15 K, x1 = 0.747	890.7 ± 20	1.21 ± 0.06
318.15 K, x1 = 0.8494	904.3 ± 20	1.28 ± 0.06
318.15 K, x1 = 0.9404	916.4 ± 20	1.37 ± 0.07
318.15 K, x1 = 1	924.4 ± 20	1.46 ± 0.07
323.15 K, x1 = 0.0803	801.9 ± 20	1.65 ± 0.08
323.15 K, x1 = 0.1609	811.9 ± 20	1.52 ± 0.08
323.15 K, x1 = 0.2403	821.8 ± 20	1.4 ± 0.07
323.15 K, x1 = 0.3473	835.3 ± 20	1.27 ± 0.06
323.15 K, x1 = 0.4404	847.1 ± 20	1.19 ± 0.06
323.15 K, x1 = 0.5619	862.8 ± 20	1.21 ± 0.06
323.15 K, x1 = 0.6501	874.2 ± 20	1.107 ± 0.056
323.15 K, x1 = 0.747	886.9 ± 20	1.13 ± 0.06
323.15 K, x1 = 0.8494	900.5 ± 20	1.19 ± 0.06
323.15 K, x1 = 0.9404	912.7 ± 20	1.27 ± 0.06
323.15 K, x1 = 1	920.7 ± 20	1.34 ± 0.07

CCCCCCCO [heptan-1-ol] + O=C1CCCCC1
Details	mass density [kg/m3]	viscosity [mPa·s]
293.15 K, x2 = 0	822.2 ± 20	7.03 ± 0.35
293.15 K, x2 = 0.0809	829.7 ± 20	6.06 ± 0.31
293.15 K, x2 = 0.1601	837.3 ± 20	5.23 ± 0.26
293.15 K, x2 = 0.2406	845.4 ± 20	4.49 ± 0.23
293.15 K, x2 = 0.3511	857.4 ± 20	3.68 ± 0.19
293.15 K, x2 = 0.4227	865.6 ± 20	3.27 ± 0.16
293.15 K, x2 = 0.5754	884.4 ± 20	2.71 ± 0.14
293.15 K, x2 = 0.6492	894.2 ± 20	2.59 ± 0.13
293.15 K, x2 = 0.7422	907.3 ± 20	2.46 ± 0.12
293.15 K, x2 = 0.8513	923.9 ± 20	2.38 ± 0.12
293.15 K, x2 = 0.9385	938.2 ± 20	2.35 ± 0.12
298.15 K, x2 = 0	818.7 ± 20	5.92 ± 0.3
298.15 K, x2 = 0.0809	826 ± 20	5.15 ± 0.26
298.15 K, x2 = 0.1601	833.5 ± 20	4.46 ± 0.22
298.15 K, x2 = 0.2406	841.4 ± 20	3.89 ± 0.2
298.15 K, x2 = 0.3511	853.1 ± 20	3.22 ± 0.16
298.15 K, x2 = 0.4227	861.2 ± 20	2.83 ± 0.14
298.15 K, x2 = 0.5754	879.6 ± 20	2.39 ± 0.12
298.15 K, x2 = 0.6492	889.3 ± 20	2.29 ± 0.12
298.15 K, x2 = 0.7422	902.2 ± 20	2.19 ± 0.11
298.15 K, x2 = 0.8513	918.5 ± 20	2.12 ± 0.11
298.15 K, x2 = 0.9385	932.6 ± 20	2.09 ± 0.11
303.15 K, x2 = 0	815.2 ± 20	5.03 ± 0.25
303.15 K, x2 = 0.0809	822.3 ± 20	4.41 ± 0.22
303.15 K, x2 = 0.1601	829.7 ± 20	3.86 ± 0.19
303.15 K, x2 = 0.2406	837.5 ± 20	3.37 ± 0.17
303.15 K, x2 = 0.3511	849 ± 20	2.82 ± 0.14
303.15 K, x2 = 0.4227	857 ± 20	2.51 ± 0.13
303.15 K, x2 = 0.5754	875.2 ± 20	2.11 ± 0.11
303.15 K, x2 = 0.6492	884.8 ± 20	2.04 ± 0.1
303.15 K, x2 = 0.7422	897.6 ± 20	1.97 ± 0.1
303.15 K, x2 = 0.8513	913.8 ± 20	1.94 ± 0.1
303.15 K, x2 = 0.9385	927.7 ± 20	1.93 ± 0.1
308.15 K, x2 = 0	811.6 ± 20	4.3 ± 0.22
308.15 K, x2 = 0.0809	818.7 ± 20	3.78 ± 0.19
308.15 K, x2 = 0.1601	825.9 ± 20	3.32 ± 0.17
308.15 K, x2 = 0.2406	833.6 ± 20	2.93 ± 0.15
308.15 K, x2 = 0.3511	845 ± 20	2.49 ± 0.13
308.15 K, x2 = 0.4227	852.8 ± 20	2.26 ± 0.11
308.15 K, x2 = 0.5754	870.9 ± 20	1.93 ± 0.1
308.15 K, x2 = 0.6492	880.4 ± 20	1.85 ± 0.09
308.15 K, x2 = 0.7422	893.1 ± 20	1.78 ± 0.09
308.15 K, x2 = 0.8513	909.2 ± 20	1.75 ± 0.09
308.15 K, x2 = 0.9385	923.1 ± 20	1.76 ± 0.09
313.15 K, x2 = 0	808 ± 20	3.71 ± 0.19
313.15 K, x2 = 0.0809	814.9 ± 20	3.24 ± 0.16
313.15 K, x2 = 0.1601	822.1 ± 20	2.86 ± 0.14
313.15 K, x2 = 0.2406	829.7 ± 20	2.54 ± 0.13
313.15 K, x2 = 0.3511	840.9 ± 20	2.19 ± 0.11
313.15 K, x2 = 0.4227	848.7 ± 20	2.03 ± 0.1
313.15 K, x2 = 0.5754	866.6 ± 20	1.77 ± 0.09
313.15 K, x2 = 0.6492	876 ± 20	1.72 ± 0.09
313.15 K, x2 = 0.7422	888.6 ± 20	1.65 ± 0.08
313.15 K, x2 = 0.8513	904.5 ± 20	1.62 ± 0.08
313.15 K, x2 = 0.9385	918.4 ± 20	1.6 ± 0.08
318.15 K, x2 = 0	804.4 ± 20	3.21 ± 0.16
318.15 K, x2 = 0.0809	811.2 ± 20	2.83 ± 0.14
318.15 K, x2 = 0.1601	818.3 ± 20	2.5 ± 0.13
318.15 K, x2 = 0.2406	825.8 ± 20	2.23 ± 0.11
318.15 K, x2 = 0.3511	836.9 ± 20	1.95 ± 0.1
318.15 K, x2 = 0.4227	844.6 ± 20	1.82 ± 0.09
318.15 K, x2 = 0.5754	862.3 ± 20	1.61 ± 0.08
318.15 K, x2 = 0.6492	871.7 ± 20	1.57 ± 0.08
318.15 K, x2 = 0.7422	884.2 ± 20	1.51 ± 0.08
318.15 K, x2 = 0.8513	900.2 ± 20	1.49 ± 0.08
318.15 K, x2 = 0.9385	914.1 ± 20	1.47 ± 0.07
323.15 K, x2 = 0	800.7 ± 20	2.79 ± 0.14
323.15 K, x2 = 0.0809	807.5 ± 20	2.49 ± 0.13
323.15 K, x2 = 0.1601	814.5 ± 20	2.23 ± 0.11
323.15 K, x2 = 0.2406	821.9 ± 20	2.01 ± 0.1
323.15 K, x2 = 0.3511	833 ± 20	1.77 ± 0.09
323.15 K, x2 = 0.4227	840.7 ± 20	1.64 ± 0.08
323.15 K, x2 = 0.5754	858.4 ± 20	1.45 ± 0.07
323.15 K, x2 = 0.6492	867.7 ± 20	1.4 ± 0.07
323.15 K, x2 = 0.7422	880.3 ± 20	1.35 ± 0.07
323.15 K, x2 = 0.8513	896.4 ± 20	1.33 ± 0.07
323.15 K, x2 = 0.9385	910.2 ± 20	1.33 ± 0.07
